For one experiment, the target named is neuropeptide Y receptor. The conditions noted are these: in vitro test for neuropeptide Y receptor antagonism; cited from earlier work.
For another experiment, the target named is T1, Y1 (Homo sapiens, UniProt P25929).
T1 sequence (P25929 1-384): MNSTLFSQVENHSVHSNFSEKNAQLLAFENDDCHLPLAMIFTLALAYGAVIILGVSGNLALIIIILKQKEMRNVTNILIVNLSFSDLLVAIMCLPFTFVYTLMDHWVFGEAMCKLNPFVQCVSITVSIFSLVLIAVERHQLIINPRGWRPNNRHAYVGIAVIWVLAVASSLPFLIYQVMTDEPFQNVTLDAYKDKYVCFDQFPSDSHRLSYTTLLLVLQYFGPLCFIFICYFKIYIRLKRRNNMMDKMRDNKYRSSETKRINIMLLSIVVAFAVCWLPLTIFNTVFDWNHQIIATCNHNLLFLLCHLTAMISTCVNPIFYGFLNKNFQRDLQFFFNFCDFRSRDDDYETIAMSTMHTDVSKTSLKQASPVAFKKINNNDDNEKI
Description: endogenous NPY response in Bowes melanoma cell host. The settings on record: at 10 uM; human Bowes melanoma cell line (HMCB).

pIC50: −log10 of the molar value.

As for `Cc1cc(N2CCCC2)cc(/C=C/c2cccc(C(F)(F)F)c2)n1` [(E)-2-methyl4-pyrrolidino-6-[2-(3-trifluoromethylphenyl)vinyl]pyridine], at neuropeptide Y receptor, the pIC50 is 8.39. Turning to `NC(N)=NCCC[C@@H](NC(=O)C(c1ccccc1)c1ccccc1)C(=O)NCc1ccc(O)cc1` [BIBP3226], the “endogenous NPY response” value on Y1 was “completely blocked”.

Values taken from patent publication US6399631B1, “Carbazole neuropeptide Y5 antagonists” (Pfizer Inc., priority 1999, dated 2002).
